We go through 28 compounds from patent US8232274B2, “Pyridazinone derivatives useful as glucan synthase inhibitors” (Albany Molecular Research, Inc., priority 2007, dated 2012).

In assay [1] the target is T1, glucan synthase (Candida albicans, UniProt O13428).
T1 construct: glucan synthase sources (2 μL permeabilized PM503 cells, or 3 μL membrane preparations from either PM503, BWP17, or ND158); endogenous in cells; host or cells: C. albicans strain BWP17, 100,000 g membrane fraction
In words: β(1,3) glucan synthase assay, C. albicans BWP17 membrane preparation (IC50). In kind it is biochemical. Conditions: in vitro fungal enzyme activity assay, read-out: IC50 (μg/mL) Candida albicans (converted). The protocol:
(§1) β(1,3) Glucan Synthase Assay:
(§2) 2. Preparation of Membrane Fraction of Yeast Cells
(§3) The protocol was modified from Douglas et al. (Journal of Bacteriology, 176, 5686-5696, 1994). For the preparation of S. cerevisiae and C. albicans membrane fractions, 1 liter of YPD supplemented with 0.02 mg/mL adenine and 0.08 mg/mL uracil was inoculated with 10 mL starter culture of PM503 (OD600=4) or the C. albicans strain BWP17 (OD600=12) in the same medium and grown at 30° C. until OD600 reached about 1. A. fumigatus (stain ND158) membranes were prepared by first preparing a spore suspension from agar slants by adding 6 mL of sterile saline, 0.1% Tween-20 solution to each slant, and resuspending by pipetting and scraping. The spore suspensions were used to inoculate two 200 mL flasks containing Sabouraud dextrose broth media. Cultures were incubated at 37° C., 250 rpm for ˜8 hrs. All cells, S. cerevisiae, C. albicans or A. fumigatus were harvested by centrifugation at 5,300 g at 4° C. for 40 minutes. After washing with 100 mL of breakage buffer (0.1 M KPi, pH 7.0, 1 mM EDTA, 1 mM DTT), the cell pellet was resuspended in 50 ml ice-cold breakage buffer. The mixture was transferred to a bead-beater chamber packed in ice (BioSpec Products, Bartlesville, Okla.). To each 50 mL sample was added 50 g of acid-washed glass beads ([…], Sigma). Cells were disrupted using 12×20 second pulses with 2 min-cooling intervals. Cell debris was removed by centrifugation at 3,000 g for 20 minutes at 4° C., and the supernatant was collected and centrifuged at 100,000 g for 1 hour at 4° C. to pellet the membrane fraction. The pellet was resuspended in 5 mL of ice-cold breakage buffer containing 25% glycerol, homogenized with a Dounce tissue homogenizer and stored at −80° C. in small aliquots.
(§4) 3. Glucan Synthase Assay and Compound Screening
The assay was performed according to Mo et at (Journal of Biological Chemistry, 269, 31267-31274, 1994) and Taft et al. (The Journal of Antibiotics, 47, 1001-1009, 1994), in a 96-well Optiplate (PerkinElmer). To each well was added 3 μL 10× compound stock (in 100% DMSO), or 3 μL of 30 μg/mL caspofungin in 100% DMSO (as positive control), or 3 μL 100% DMSO (as negative control), followed by the addition of appropriate amount of glucan synthase sources (2 μL permeabilized PM503 cells, or 3 μL membrane preparations from either PM503, BWP17, or ND158). The reaction was initiated by adding 25 μL reaction buffer (0.6 mM UDP-Glucose 0.6 nCi [U-^14C]DUP-Glucose (327 mCi/mmol, Amersham Bioscience), 20 μM GTP-γ-S, 25 mM NaF, 7.5 mg/mL BSA, 8% glycerol in 75 mM Tris-HCl, pH 7.5). The plate was incubated on a shaker for 1.5 hour at room temperature before being quenched with 250 μL 1% TCA (Trichloroacetic Acid). The quenched reaction was mixed by pipetting, and immediately transferred to a 96-well filter plate (Glass fiber B on 0.65 μm hydrophilic durapore membrane, Millipore) pre-wetted with wash buffer (5% TCA, 60 mM NaPPi). The glucan product was retained on the filter membrane by applying vacuum to the plate using a MultiScreen Resist Vacuum Manifold (Millipore). The filter plate was further washed 4 times with 200 μL wash buffer. The plate was dried at 50° C. for 30 minutes. 100 μL of Microscint-0 (PerkinElmer) was added to each well, and plate was counted in a TopCount NXT plate reader (PerkinElmer).
Dose-response curves were plotted from inhibition data generated. IC50 was determined by fitting the CPM versus the Concentration of the test compound plot with the following equation (4-parameter logistic model, ID Business Solutions XLfit 4.2).

Assay [2] deals with T2, glucan synthase (Saccharomyces cerevisiae, UniProt P38631).
T2 construct: glucan synthase sources (2 μL permeabilized PM503 cells, or 3 μL membrane preparations from either PM503, BWP17, or ND158); endogenous in cells; host or cells: S. cerevisiae strain PM503, permeabilized cells or 100,000 g membrane fraction
T2 sequence (P06780 1-206): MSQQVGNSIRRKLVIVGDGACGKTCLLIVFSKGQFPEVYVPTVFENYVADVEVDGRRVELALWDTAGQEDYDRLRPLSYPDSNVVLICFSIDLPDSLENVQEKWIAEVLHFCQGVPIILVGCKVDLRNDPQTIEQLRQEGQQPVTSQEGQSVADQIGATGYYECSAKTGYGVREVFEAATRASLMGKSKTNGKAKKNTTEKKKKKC
T2 sequence (P38631 whole entry): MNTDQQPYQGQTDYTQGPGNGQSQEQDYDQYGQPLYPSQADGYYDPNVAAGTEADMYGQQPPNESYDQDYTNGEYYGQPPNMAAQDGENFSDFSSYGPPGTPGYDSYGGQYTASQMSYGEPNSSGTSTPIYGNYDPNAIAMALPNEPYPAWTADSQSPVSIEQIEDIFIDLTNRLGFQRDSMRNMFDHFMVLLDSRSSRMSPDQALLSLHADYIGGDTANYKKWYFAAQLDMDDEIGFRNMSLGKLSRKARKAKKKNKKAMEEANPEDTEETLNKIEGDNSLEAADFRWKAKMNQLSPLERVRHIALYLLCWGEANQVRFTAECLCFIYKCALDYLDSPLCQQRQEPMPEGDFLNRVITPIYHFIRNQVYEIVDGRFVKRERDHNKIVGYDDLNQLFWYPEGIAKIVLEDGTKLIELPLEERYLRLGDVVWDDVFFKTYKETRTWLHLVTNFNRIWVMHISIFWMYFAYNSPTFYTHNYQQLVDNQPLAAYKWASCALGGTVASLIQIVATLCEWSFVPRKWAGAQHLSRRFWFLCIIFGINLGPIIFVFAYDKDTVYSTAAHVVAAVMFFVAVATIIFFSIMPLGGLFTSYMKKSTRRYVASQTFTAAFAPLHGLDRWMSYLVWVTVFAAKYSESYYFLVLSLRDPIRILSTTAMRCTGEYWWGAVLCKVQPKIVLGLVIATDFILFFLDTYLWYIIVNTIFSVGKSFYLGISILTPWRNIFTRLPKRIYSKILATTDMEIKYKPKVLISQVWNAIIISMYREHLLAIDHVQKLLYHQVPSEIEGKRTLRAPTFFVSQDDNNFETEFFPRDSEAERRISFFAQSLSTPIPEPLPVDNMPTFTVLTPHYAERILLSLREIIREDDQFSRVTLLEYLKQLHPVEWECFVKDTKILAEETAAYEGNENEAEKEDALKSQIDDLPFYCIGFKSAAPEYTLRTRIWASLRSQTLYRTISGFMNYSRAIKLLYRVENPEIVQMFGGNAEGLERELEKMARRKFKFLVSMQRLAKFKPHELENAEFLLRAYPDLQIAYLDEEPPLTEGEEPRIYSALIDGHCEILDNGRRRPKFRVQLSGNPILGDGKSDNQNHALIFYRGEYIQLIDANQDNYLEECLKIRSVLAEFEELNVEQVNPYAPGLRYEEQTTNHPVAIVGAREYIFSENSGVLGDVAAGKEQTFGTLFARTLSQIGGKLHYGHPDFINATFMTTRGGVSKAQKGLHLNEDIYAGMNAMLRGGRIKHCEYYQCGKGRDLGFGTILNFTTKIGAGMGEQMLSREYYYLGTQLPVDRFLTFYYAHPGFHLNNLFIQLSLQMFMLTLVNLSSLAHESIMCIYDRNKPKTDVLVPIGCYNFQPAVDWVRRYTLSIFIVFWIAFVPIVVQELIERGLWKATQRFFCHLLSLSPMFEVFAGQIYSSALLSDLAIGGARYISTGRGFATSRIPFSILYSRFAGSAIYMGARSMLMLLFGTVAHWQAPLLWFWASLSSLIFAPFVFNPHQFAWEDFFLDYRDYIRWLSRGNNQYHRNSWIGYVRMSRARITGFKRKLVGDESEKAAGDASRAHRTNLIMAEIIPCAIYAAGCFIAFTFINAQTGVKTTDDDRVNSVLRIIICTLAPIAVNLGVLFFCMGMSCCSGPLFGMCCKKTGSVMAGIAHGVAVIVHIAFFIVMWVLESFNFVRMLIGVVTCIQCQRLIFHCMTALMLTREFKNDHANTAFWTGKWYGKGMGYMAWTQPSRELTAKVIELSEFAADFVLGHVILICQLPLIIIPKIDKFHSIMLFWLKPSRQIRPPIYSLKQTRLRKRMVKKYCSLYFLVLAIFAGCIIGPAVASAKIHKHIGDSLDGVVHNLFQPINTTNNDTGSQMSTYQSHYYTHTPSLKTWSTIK
Briefly: β(1,3) glucan synthase assay, S. cerevisiae PM503 permeabilized cells or membrane preparation (IC50). In kind it is biochemical. The protocol: as §1
1. Preparation of Permeabilized Saccharomyces cerevisiae Cells.
Permeabilization of yeast cells was performed according to Crotti et al. (Analytical Biochemistry, 292, 8-16, 2001) with some modifications. A 10 ml-starter culture of the S. cerevisiae strain in YPD medium (1% yeast extract, 2% bacto-peptone, 2% dextrose) with OD600=3-4 was used to inoculate 1 liter of YPD. The culture was grown at 30° C. until […]. Cells were collected by centrifugation (5,300 g for 15 min at 4° C.) and resuspended in buffer (40 mM EDTA, 100 mM β-mercaptoethanol) at 1 g of cell pellet/3.5 ml buffer. The cell suspension was shaken for 30 min at 30° C., followed by centrifugation at 12,000 g for 10 min at 4° C. The cell pellet was washed with 5 ml 0.8 M sorbitol and resuspended in 6.8 ml of 2.9 mM citric acid, 11.3 mM dibasic sodium phosphate, 1 mM EDTA, 0.8 M sorbitol, with constant shaking at 30)C for 30 min. After centrifugation at 12,000 g for […] at 4° C., the pellet was resuspended in 31.3 ml 50 mM Tris-HCl, pH 7.0, and incubated on ice for 5 min. The mixture was then centrifuged at 12,000 g for 10 min at 4 AC, and the pellet was resuspended in 1 ml of 50 mM Tris-HCl and 33% glycerol, pH 7.5. The permeabilized cell preparation was stored at […] in aliquots.
as §2, §3, §4
The assay was performed according to Mo et at (Journal of Biological Chemistry, 269, 31267-31274, 1994) and Taft et al. (The Journal of Antibiotics, 47, 1001-1009, 1994), in a 96-well Optiplate (PerkinElmer). To each well was added 3 μL 10× compound stock (in 100% DMSO), or 3 μL of 30 μg/mL caspofungin in 100% DMSO (as positive control), or 3 μL 100% DMSO (as negative control), followed by the addition of appropriate amount of glucan synthase sources (2 μL permeabilized PM503 cells, or 3 μL membrane preparations from either PM503, BWP17, or ND158). The reaction was initiated by adding 25 μL reaction buffer (0.6 mM UDP-Glucose 0.6 nCi [U-^14C]DUP-Glucose (327 mCi/mmol, Amersham Bioscience), 20 μM GTP-γ-S, 25 mM NaF, 7.5 mg/mL BSA, 8% glycerol in 75 mM Tris-HCl, pH 7.5). […]

T1 sequence (O13428 1-1897): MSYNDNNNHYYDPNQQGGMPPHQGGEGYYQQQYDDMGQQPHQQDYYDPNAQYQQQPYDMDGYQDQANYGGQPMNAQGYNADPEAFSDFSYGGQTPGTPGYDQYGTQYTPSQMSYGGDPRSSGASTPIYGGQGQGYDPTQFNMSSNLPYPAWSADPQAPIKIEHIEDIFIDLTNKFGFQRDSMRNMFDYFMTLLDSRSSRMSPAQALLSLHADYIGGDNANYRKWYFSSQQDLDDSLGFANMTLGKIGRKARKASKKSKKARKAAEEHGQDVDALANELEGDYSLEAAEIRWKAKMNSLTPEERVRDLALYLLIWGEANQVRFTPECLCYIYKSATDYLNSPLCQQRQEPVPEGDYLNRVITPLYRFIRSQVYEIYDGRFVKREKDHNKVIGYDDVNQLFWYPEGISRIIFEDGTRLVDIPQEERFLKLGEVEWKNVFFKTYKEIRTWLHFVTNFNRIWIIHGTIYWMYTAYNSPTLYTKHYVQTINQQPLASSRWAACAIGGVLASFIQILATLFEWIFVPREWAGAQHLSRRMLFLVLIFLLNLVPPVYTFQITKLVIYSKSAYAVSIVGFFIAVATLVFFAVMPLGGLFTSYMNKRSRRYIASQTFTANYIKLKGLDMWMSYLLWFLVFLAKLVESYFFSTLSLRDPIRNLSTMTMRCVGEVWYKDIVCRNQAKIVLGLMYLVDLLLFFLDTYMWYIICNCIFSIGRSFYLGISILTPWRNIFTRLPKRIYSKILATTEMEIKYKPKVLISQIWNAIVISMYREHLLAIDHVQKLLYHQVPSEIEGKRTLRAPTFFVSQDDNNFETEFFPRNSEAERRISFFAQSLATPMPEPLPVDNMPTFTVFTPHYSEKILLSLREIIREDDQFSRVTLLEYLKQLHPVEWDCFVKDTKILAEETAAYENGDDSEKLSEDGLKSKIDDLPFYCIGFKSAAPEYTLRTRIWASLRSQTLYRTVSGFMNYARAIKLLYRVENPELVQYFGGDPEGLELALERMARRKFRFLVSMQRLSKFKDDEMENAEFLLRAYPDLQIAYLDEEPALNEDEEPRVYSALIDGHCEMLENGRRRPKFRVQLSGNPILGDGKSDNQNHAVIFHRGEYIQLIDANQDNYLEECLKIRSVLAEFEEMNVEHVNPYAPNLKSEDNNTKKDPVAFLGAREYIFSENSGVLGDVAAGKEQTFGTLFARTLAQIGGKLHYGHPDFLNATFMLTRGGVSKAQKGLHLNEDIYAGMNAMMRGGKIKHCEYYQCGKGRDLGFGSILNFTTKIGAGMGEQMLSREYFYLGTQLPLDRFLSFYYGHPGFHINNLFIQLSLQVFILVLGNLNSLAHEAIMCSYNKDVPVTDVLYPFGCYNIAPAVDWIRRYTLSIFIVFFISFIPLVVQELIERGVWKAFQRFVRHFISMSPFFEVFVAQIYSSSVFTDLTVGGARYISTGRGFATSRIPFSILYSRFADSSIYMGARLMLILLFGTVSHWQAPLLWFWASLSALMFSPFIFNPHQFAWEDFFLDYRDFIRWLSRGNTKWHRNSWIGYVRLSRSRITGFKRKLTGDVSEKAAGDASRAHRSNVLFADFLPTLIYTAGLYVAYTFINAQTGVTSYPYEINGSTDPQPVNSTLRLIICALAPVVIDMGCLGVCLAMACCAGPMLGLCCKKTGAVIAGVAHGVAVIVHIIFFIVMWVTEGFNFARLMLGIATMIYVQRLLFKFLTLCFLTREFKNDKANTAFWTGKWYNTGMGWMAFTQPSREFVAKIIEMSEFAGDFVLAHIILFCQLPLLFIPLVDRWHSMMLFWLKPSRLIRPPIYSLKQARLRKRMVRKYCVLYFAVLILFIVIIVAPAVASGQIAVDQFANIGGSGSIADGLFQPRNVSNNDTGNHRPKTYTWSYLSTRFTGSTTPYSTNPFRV
T1 sequence (O42825 1-195 partner limits assumed): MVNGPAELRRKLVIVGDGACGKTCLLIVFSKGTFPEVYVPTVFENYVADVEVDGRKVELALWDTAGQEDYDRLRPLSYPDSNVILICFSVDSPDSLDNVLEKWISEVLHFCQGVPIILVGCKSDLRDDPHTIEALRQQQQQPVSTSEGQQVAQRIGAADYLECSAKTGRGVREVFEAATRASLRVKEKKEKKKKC

`COc1ccc(CNS(=O)(=O)N2CCN(c3cnn(-c4cc(F)cc(F)c4)c(=O)c3OCC3(C)CC3)CC2)cc1` [1633Z]: the IC50 was 86.9 nM in assay [1] and 139 nM in assay [2].

On to `CCCCCCSc1c(N2CCN(S(C)(=O)=O)CC2)cnn(-c2cc(F)cc(F)c2)c1=O` [11Z], for which the IC50 in assay [1] is 12700 nM; in assay [2] it was 2470 nM.

On to `CC1(COc2c(N3CCN(S(=O)(=O)Cc4ccc(C#N)cc4)CC3)cnn(-c3cccc(Cl)c3)c2=O)CC1` [1529Z-56], for which the IC50 is 108 nM in assay [1] and 307 nM in assay [2].

Turning to `CC1(COc2c(N3CCN(S(=O)(=O)NCc4ccc(N)cc4)CC3)cnn(-c3cc(F)cc(F)c3)c2=O)CC1` [1634Z], the IC50 was 196 nM in assay [1] and 303 nM in assay [2].

`CCC1(COc2c(N3CCN(S(=O)(=O)Cc4ccc(N)cc4)CC3)cnn(-c3cc(F)cc(F)c3)c2=O)CC1` [186*]: the IC50 was 214 nM in assay [1] and 89.3 nM in assay [2].

As for `CC1(COc2c(N3CCN(S(=O)(=O)Cc4ccccc4)CC3)cnn(-c3cc(F)cc(F)c3)c2=O)CC1` [1529Z-191], the values for the IC50 in assay [1] and in assay [2] were 37.7 nM and 207 nM, respectively.

`CC1(COc2c(N3CCN(S(=O)(=O)Cc4ccc(N)c(Cl)c4)CC3)cnn(-c3cc(F)cc(F)c3)c2=O)CC1` [Compound 1574Zo]: the figures for the IC50 in assay [1] and in assay [2] were 69 nM and 51.7 nM, respectively.

Take `CC1(COc2c(N3CCN(S(=O)(=O)Cc4cccnc4N)CC3)cnn(-c3cccc(Cl)c3)c2=O)CC1` [Compound 1574Zr]: the figures for the IC50 in assay [1] and in assay [2] were 239 nM and 110 nM, respectively.

As to `O=c1c(OC2CCCC2)c(N2CCN(S(=O)(=O)Cc3cc(Cl)cc(Cl)c3)CC2)cnn1-c1cccc(Cl)c1` [553Z], the IC50 in assay [1] was 351 nM; in assay [2], 184 nM.

`CC1(COc2c(N3CCN(S(=O)(=O)Cc4cccc(N)c4)CC3)cnn(-c3cc(F)cc(F)c3)c2=O)CC1` [1529Z-40]: the IC50 in assay [1] and in assay [2] was 55 nM throughout.

As to `Cc1cc(CS(=O)(=O)N2CCN(c3cnn(-c4cc(F)cc(F)c4)c(=O)c3OCC3(C)CC3)CC2)ccc1N` [1870Z], the values for the IC50 in assay [1] and in assay [2] were 125 nM and 53.6 nM, respectively.

On to `O=c1c(OC2CCCC2)c(N2CCN(S(=O)(=O)Cc3ccccc3)CC2)cnn1-c1cccc(F)c1` [1402Z], for which the figures for the IC50 in assay [1] and in assay [2] were 117 nM and 39 nM, respectively.

For the compound `O=c1c2c(cnn1-c1cc(F)cc(F)c1)N1CCN(CC1)S(=O)(=O)/C=C/CCCCCCCCO2` [2022Z], the IC50 in assay [1] is 157 nM; in assay [2], 78.6 nM.

As to `CC(C)S(=O)(=O)N1CCN(c2cnn(-c3cc(F)cc(F)c3)c(=O)c2Sc2ccccc2)CC1` [19Z], the values for the IC50 in assay [1] and in assay [2] were 3360 nM and 160 nM, respectively.

Take `CC1(COc2c(N3CCN(S(=O)(=O)Cc4cccc(N)c4)CC3)cnn(-c3cccc(Cl)c3)c2=O)CC1` [755Z]: the IC50 was 73.5 nM in assay [1] and 91.9 nM in assay [2].

As to `O=c1c(N2CCCCC2)c(N2CCN(S(=O)(=O)Cc3ccccc3)CC2)cnn1-c1ccc(F)cc1` [61Z], the figures for the IC50 in assay [1] and in assay [2] were 2540 nM and 625 nM, respectively.

As for `CC1(COc2c(N3CCN(S(=O)(=O)Cc4cc(N)ccc4F)CC3)cnn(-c3cccc(Cl)c3)c2=O)CC1` [1904Z], the IC50 is 142 nM in assay [1] and 107 nM in assay [2].

Consider `CCOCCOc1c(N2CCN(Cc3c(Cl)cccc3Cl)CC2)cnn(-c2cc(Cl)cc(Cl)c2)c1=O` [214Z], for which the IC50 is 489 nM in assay [1] and 1310 nM in assay [2].

`O=c1c(Nc2ccc(F)cc2)c(N2CCN(S(=O)(=O)Cc3ccccc3)CC2)cnn1-c1cccc(Cl)c1` [47Z]: the figures for the IC50 in assay [1] and in assay [2] were 415 nM and 45.1 nM, respectively.

`O=c1c(OC2CCCC2)c(N2CCN(Cc3c(Cl)cccc3Cl)CC2)cnn1-c1cccc(Cl)c1` [208Z]: the IC50 in assay [1] is 2620 nM; in assay [2] it was 206 nM.

Regarding `CC1(COc2c(N3CCN(S(=O)(=O)Cc4ccc(N)cc4)CC3)cnn(-c3cccc(Cl)c3)c2=O)CC1` [745Z], the results for the IC50 in assay [1] and in assay [2] were 110 nM and 73.5 nM, respectively.

As to `O=c1c(OCC2(CF)CC2)c(N2CCN(S(=O)(=O)Cc3ccccc3)CC2)cnn1-c1cccc(Cl)c1` [1122Z], the IC50 in assay [1] and in assay [2] was 54.8 nM throughout.

Regarding `O=c1c(-c2ccc(C3CCCCC3)cc2)c(N2CCN(S(=O)(=O)Cc3ccccc3)CC2)cnn1-c1cc(F)cc(F)c1` [96Z], the results for the IC50 in assay [1] and in assay [2] were 1550 nM and 364 nM, respectively.

Consider `CCCCCCCSc1c(N2CCN(S(=O)(=O)Cc3ccccc3)CC2)cnn(-c2ccccc2)c1=O` [7Z], for which the IC50 in assay [1] is 2030 nM; in assay [2], 629 nM.

Consider `CC1CCC(Oc2c(N3CCN(S(=O)(=O)Cc4cccc(N)c4)CC3)cnn(-c3ccccc3)c2=O)C1` (centres unmarked) [1529Z-70], for which the IC50 in assay [1] was 153 nM; in assay [2], 134 nM.

For `Cc1ccc(CNS(=O)(=O)N2CCN(c3cnn(-c4cccc(Cl)c4)c(=O)c3OCC3(C)CC3)CC2)cc1N` [1683Z], the IC50 is 122 nM in assay [1] and 140 nM in assay [2].

Turning to `CC(C)NC(=O)N1CCN(c2cnn(-c3cccc(F)c3)c(=O)c2OC2Cc3ccccc3C2)CC1` [197Z], the results for the IC50 in assay [1] and in assay [2] were 3870 nM and 159 nM, respectively.

As to `CC(C)S(=O)(=O)N1CCN(c2cnn(-c3cccc(F)c3)c(=O)c2OCCCCCCC(C)(C)F)CC1` [801Z], the IC50 in assay [1] was 55.5 nM; in assay [2], 18.5 nM.
